Legend:
caspase-3 = assay: Caspase-3 colorimetric assay; assay type: cell-based, human
Procedure: Using CPP32/Caspase-3 Colorimetric Assay Kit, the activated caspase was estimated as per manufacturer's protocol. The buffers used in the experiment were those supplied along with the kit. A549 cells (8×10^5 per 12.5 cm^2 culture flasks) were seeded with their respective growth medium and incubated for 24 h at 37° C. with/without 5% CO2. Then, confluent cells were added with the respective drug medium while maintaining an untreated group as a control. Cultures were incubated for 6 h, maintaining the same conditions, 0.1 mM Hydrogen Peroxide (H2O2) and 10 μM standard drug were used as positive control for activation of caspase-3. After treatment incubation, the detached cells in the supernatant were collected, and the adherent cells were trypsinized to add into the respective tubes. Subsequently, tubes were centrifuged at 1500 rpm for 10 min to acquire a cell pellet. […] The […] was transferred to fresh tubes and the protein concentrations of samples were determined by employing Bradford assay. […] Post-incubation, the plate was read at 405 nm in a Dynex Opsys MRTM Microplate Reader (Dynex Technologies, VA, USA). Percentage caspase-3 activation was calculated using the following formula: % Caspase-3 activation=[(At−Ac)/Ac]×100
“At” represents the mean absorbance of test wells and “Ac” represents the mean absorbance of the control wells.

EAC cells [1] = assay: MTT cell viability assay, EAC; assay type: cell-based, mouse; conditions: 48 h, read-out: IC50 value (μM) against EAC cells, MTT assay
Procedure: (§1) The inhibitory concentration (IC50) value was evaluated using an MTT [3-(4,5-dimethylthiazol-2-yl)-2,5-diphenyltetrazolium bromide] assay. Cancer cells were grown (1×10^4 cells/well) in a 96-well plate for 48 h to 75% confluence. The medium was replaced with fresh medium containing serially diluted synthesized compounds, and the cells were further incubated for 48 h. The culture medium was removed, and 100 μL of the MTT [3-(4,5-dimethylthiozol-2-yl)-3,5-diphenyl tetrazolium bromide] (Hi-Media, Mumbai, India) solution was added to each well and incubated at 37° C. for 4 h. After removal of the supernatant, 50 μL of DMSO was added to each of the wells and incubated for 10 min to solubilize the formazan crystals. The optical density was measured at 620 nm in an ELISA multiwell plate reader (Thermo Multiskan EX, USA). The OD value was used to calculate the percentage of viability using the following formula.

EAC cells [2] = assay: Trypan blue dye exclusion assay, EAC; assay type: cell-based, mouse; conditions: 48 h, read-out: IC50 value (μM) against EAC cells, Trypan blue assay
Procedure: (§2) The cytotoxic effects of synthesized compounds on various types of cancer cells were determined by trypan blue dye exclusion assay. The cultured cells were treated with the synthesized compounds and incubated for 48 h. After the incubation period, the cells were detached by 0.5% trypan-EDTA solution, harvested by centrifugation at 3000 rpm for 5 minutes and diluted in 1 ml of PBS. Then, 10 μl of trypan blue dye solution was added to each sample and cells were re-suspended. About 20 μl of cell suspensions were carefully and continuously filled in the haemocytometer chamber and viable cells were counted in 1×1 mm squares, four chambers and the average number of cells per square determined. Total viable cells were determined using the following formula,
The values were plotted in MS excel version 8.1, graphed and the inhibitory concentration-50 (IC50) values were estimated.

PBMC cells [3] = assay: Trypan blue dye exclusion assay, PBMC; assay type: cell-based, human; conditions: 48 h, read-out: IC50 value (μM) against PBMC cells, Trypan blue assay
Procedure: (§3) Breast cancer cells (MCF-7), lung cancer cells (A549), Hela cells, and peripheral blood mononuclear cells (PBMC) were purchased from the National Center for Cell Sciences (NCCS), Pune, India. The cancer cells were maintained in Dulbecco's modified eagles medium (DMEM), supplemented with 2 mM 1-glutamine and balanced salt solution (BSS), adjusted to contain 1.5 g/L Na2CO3, 0.1 mM nonessential amino acids, 1 mM sodium pyruvate, 2 mM 1-glutamine, 1.5 g/L glucose, 10 mM (4-(2-hydroxyethyl)-1-piperazineethane sulfonic acid) (HEPES), and 10% fetal bovine serum (GIBCO, USA). Penicillin and streptomycin (100 IU/100 μg) were adjusted to 1 mL/L. The cells were maintained at 37° C. with 5% CO2 in a humidified CO2 incubator.
as §2, with “Then, 10 μl of trypan blue dye solution was added to each sample and cells were re-suspended.” left out, “formula, […]” for “formula,”

PBMC cells [4] = assay: MTT cell viability assay, PBMC; assay type: cell-based, human; conditions: 48 h, read-out: IC50 value (μM) against PBMC cells, MTT assay
Procedure: as §3
as §1, with “After removal of the supernatant, 50 μL of DMSO was added to each of the wells and incubated for 10 min to solubilize the formazan crystals.” left out, “The OD value was used to calculate the percentage of viability using the following formula.” left out

NIH-3T3 cells = assay: Toxicity to NIH-3T3 cells; assay type: cell-based
cancer cells = assay: MTT and trypan blue assays, overall IC50; assay type: cell-based; conditions: read-out: anti-angiogenesis effect, IC50 values
Procedure: as §1
The cytotoxic effects of synthesized compounds on various types of cancer cells were determined by trypan blue dye exclusion assay. […] About 20 μl of cell suspensions were carefully and continuously filled in the haemocytometer chamber and viable cells were counted in 1×1 mm squares, four chambers and the average number of cells per square determined. Total viable cells were determined using the following formula, […]

Hela cells [5] = assay: MTT cell viability assay, Hela; assay type: cell-based; conditions: Homo sapiens, 48 h, read-out: IC50 value (μM) against Hela cells, MTT assay
Procedure: as §3
as §1, with “After removal of the supernatant, 50 μL of DMSO was added to each of the wells and incubated for 10 min to solubilize the formazan crystals.” left out, “The OD value was used to calculate the percentage of viability using the following formula.” left out

MCF-7 cells [6] = assay: MTT cell viability assay, MCF-7; assay type: cell-based; conditions: Homo sapiens, MCF7; MCF-7, 48 h; read-out: IC50 value (μM) against MCF-7 cells, MTT assay
Procedure: as §3
as §1, with “After removal of the supernatant, 50 μL of DMSO was added to each of the wells and incubated for 10 min to solubilize the formazan crystals.” left out, “The OD value was used to calculate the percentage of viability using the following formula.” left out

[7] = tested on: EAC induced angiogenesis in peritoneum; assay: Peritoneal angiogenesis assay; assay type: in vivo, Swiss albino mice
Procedure: (§4) The effect of potent synthesized compound BAMC on the modulation of neovessel and tumor growth was verified in EAC bearing animals. The EAC tumor bearing mice were grouped separately at two different concentrations (25 and 50 mg/Kg, b.w/i.p) of potent synthesized compounds and individually the groups were treated using a 26 gauge needle. Then, after the onset of tumor on the 4th day, three doses were given on every alternative day. The growth of the tumor was monitored by taking the body weight of the animals every day. Then, control animals were injected with 0.2 ml of saline (i.p) on every alternative day. In each treatment, at least six mice were taken and each experiment was repeated thrice. After the completion of treatment, the animals from each group were sacrificed on the 10th day and the EAC cells along with ascites fluid were harvested and the quantity was recorded. The peritoneum of the mice was cut open and the inner lining of the peritoneal cavity was examined for angiogenesis (vasculature) in compound-treated, tumor bearing mice. Finally, the inner lining of normal mice was also examined for vasculature and photographed using Sony steady shot DSC-W610 camera. These sets of animals were used to study the survivability analysis after treatment until their death.

A549 cells [8] = assay: Cancer cell migration (scratch wound) assay; assay type: cell-based; conditions: Homo sapiens, 48 h
Procedure: The A549 cells were cultured in a six well plate until they reached a confluence of 60-70%. A scratch was made to form a wound using a micropipette tip and the monolayer was washed with growth medium. Then, 2 ml medium containing different concentrations of test drugs was added to the respective wells, incubated for 48 h, fixed with chilled 70% ethanol and stained with crystal violet (0.4 g/l). Images were taken from random fields at regular time intervals using an inverted microscope (Bresser, Biolux). Finally, the percentage of cell migration was calculated by comparing the final gap width to initial gap width.

Hela cells [9] = assay: Trypan blue dye exclusion assay, Hela; assay type: cell-based; conditions: Homo sapiens, 48 h, read-out: IC50 value (μM) against Hela cells, Trypan blue assay
Procedure: as §3
as §2, with “Then, 10 μl of trypan blue dye solution was added to each sample and cells were re-suspended.” left out, “formula, […]” for “formula,”

A549 cells [10] = assay: Trypan blue dye exclusion assay, A549; assay type: cell-based; conditions: Homo sapiens, A549, 48 h; read-out: IC50 value (μM) against A549 cells, Trypan blue assay
Procedure: as §3
as §2, with “Then, 10 μl of trypan blue dye solution was added to each sample and cells were re-suspended.” left out, “formula, […]” for “formula,”

EAC tumor = assay: In vivo EAC ascites tumor growth; conditions: for decrease of tumor volume, % of inhibition: three doses on alternate days
Procedure: The EAC tumor was obtained from Mahajana Education Center, BOC, in Biotechnology. Microbiology& Biochemistry Mahajana College, Mysore University, Mysore, Karnataka, India, and the same was induced into adult Swiss albino mice i.p and left for the growth.
The EAC tumor bearing mice (donor) were taken on the 12th day after tumor transplantation and the ascites fluid was drawn using an 18 gauge needle into a sterile syringe. Then the tumor cell viability was tested by trypan blue exclusion assay and the cells were counted using a haemocytometer. The ascites fluid was suitably diluted to get a concentration of 5×10^6/0.2 ml of tumor cell suspension. This was injected into the i.p cavity of Swiss mice to obtain ascites tumor and the process was repeated every 12 days.
Ascites tumor was obtained by injecting 5×10^6 viable tumor cells into i.p cavity of Swiss mice. Tumor growth was followed by recording the animal weights. These cells grew in the peritoneum of mice, forming an ascites tumor with enormous abdominal swelling and showing a profound increase in body weight. The EAC cells began their exponential growth phase from the 7th day after tumor cell injection and the animals succumbed to the ascites tumor burden between 16 to 20 days after injection of tumor cells.
as §4

MCF-7 cells [11] = assay: Colony formation assay; assay type: cell-based, human; conditions: 5, 10, 20 μM, 6 hours pretreatment, 12 days
Procedure: Long-term effects of the active compound were determined by colony formation with minor modifications. […] Surviving colonies were fixed and stained by using 0.5% crystal violet. Visible colonies were observed and colonies were counted and photographed.

[12] = tested on: genomic DNA of cancer cells; assay: DNA fragmentation assay (apoptotic ladder); assay type: cell-based; conditions: treated vs untreated cells
Procedure: DNA damaging studies were carried out according to previously described methods. The DNA damaging activity of the compound on genomic DNA of both control and treated cells were evaluated by Phenol:Chloroform method. Briefly, the cells were first lysed using lysis buffer (50 mM Tris-Hcl, 0.5% SDS, pH 8.0) and incubated for 30 minutes at […]. The cell lysate was precipitated by using potassium acetate (8M) and incubated at 4° C. for 1 hr. The supernatant was mixed with phenol:Chloroform:isoamylalcohol at 25:24:1 ratio. This step was repeated thrice. DNA was precipitated by adding ice cold alcohol and precipitated DNA was air dried and dissolved by using appropriate amounts of TE Buffer (pH 8.0). Precipitated DNA was subjected to RNase digestion (2 μg/mL) for 1 hr at 37° C. The obtained DNA was quantified by using nanodrop (Eppendrof Ag 22331 Hamburg 6135EM402331) and equal amounts of (50 μg) of DNA were loaded to 1% agarose gel, observed under uv-trans illuminator, and documented.

MCF-7 cells [13] = assay: Trypan blue dye exclusion assay, MCF-7; assay type: cell-based; conditions: Homo sapiens, MCF7; MCF-7, 48 h; read-out: IC50 value (μM) against MCF-7 cells, Trypan blue assay
Procedure: as §3
as §2, with “Then, 10 μl of trypan blue dye solution was added to each sample and cells were re-suspended.” left out, “formula, […]” for “formula,”

A549 cells [14] = assay: MTT cell viability assay, A549; assay type: cell-based; conditions: Homo sapiens, A549, 48 h; read-out: IC50 value (μM) against A549 cells, MTT assay
Procedure: as §3
as §1, with “After removal of the supernatant, 50 μL of DMSO was added to each of the wells and incubated for 10 min to solubilize the formazan crystals.” left out, “The OD value was used to calculate the percentage of viability using the following formula.” left out

Structure (SMILES): OO [H2O2, Hydrogen Peroxide, reference compound]
- percentage of caspase-3 activation (caspase-3; MCF-7, 0.1 mM, positive control): 91.1%

Structure (SMILES): N.N.[Cl][Pt][Cl] [Cisplatin, reference compound]
- IC50 (EAC cells [1]): 4.9 ± 1.1 µM
- IC50 (EAC cells [2]): 4.4 ± 1.3 µM
- IC50 (PBMC cells [3]): 96.1 ± 0.8 µM
- IC50 (PBMC cells [4]): 91.4 ± 1.1 µM

Structure (SMILES): Cc1ccccc1OCC(=O)NNC(=O)C1CN(Cc2ccccc2)CCO1 (centres unmarked) [BAMC, 4-Benzyl-N′-(2-(o-tolyloxy)acetyl) morpholine-2-carbohydrazide]
- percentage of caspase-3 activation (caspase-3; MCF-7, BAMC concentration not stated): 84.5%
- toxicity to NIH-3T3 cells (NIH-3T3 cells): ~97 µM
- IC50 (cancer cells): ~5.5 µM
- IC50 (Hela cells [5]): 4.9 ± 0.2 µM
- IC50 (MCF-7 cells [6]): 4.5 ± 2 µM
- regression of EAC induced angiogenesis in peritoneum ([7]; first value of 'respectively' (25 mg/kg)): 40%
- regression of EAC induced angiogenesis in peritoneum ([7]; second value of 'respectively' (50 mg/kg)): 15%
- IC50 (EAC cells [1]; Mus musculus): 6.7 ± 1.8 µM
- inhibition at 10 µM (A549 cells [8]; A549, 10 μM): 13%
- inhibition at 20 µM (A549 cells [8]; A549, 20 μM): 72.3%
- IC50 (Hela cells [9]): 5.2 ± 1.3 µM
- IC50 (A549 cells [10]): 5.8 ± 0.7 µM
- decrease of tumor volume, % of inhibition (EAC tumor; EAC mice, 25 mg/kg bw i.p.): 74.35%
- decrease of tumor volume, % of inhibition (EAC tumor; EAC mice, 50 mg/kg bw i.p.): 80.2%
- adverse effect on normal lymphoid organs (morphology of kidney, liver, spleen) (EAC tumor; EAC mice, 25 and 50 mg/kg): did not show any symptoms of adverse effect
- cell density reduction (EAC tumor; EAC mice, 25 and 50 mg/kg, concentration dependent): six fold reduction
- body weight of tumor bearing mice (EAC tumor; EAT bearing mice, treated vs control): significant decrease in body weight
- colony formation (colonogenic efficiency) (MCF-7 cells [11]): visibly diminished the colonogenic efficiency of MCF-7 cells
- IC50 (EAC cells [2]; Mus musculus): 6.8 ± 1.4 µM
- IC50 (PBMC cells [3]; Homo sapiens): 85.7 ± 0.7 µM
- IC50 (PBMC cells [4]; Homo sapiens): 89.9 ± 3.5 µM
- DNA fragmentation (apoptotic ladder), agarose gel [12]: typical “ladder (A)” formation of DNA
- IC50 (MCF-7 cells [13]): 4.6 ± 1.1 µM
- IC50 (A549 cells [14]): 5.6 ± 1 µM

Reference: US10954200B1, “Anti-angiogenesis compound” (KING SAUD UNIVERSITY, priority 2019, dated 2021)
